Measured values from US20080171660A1, “Method of Controlling Weeds” (priority 2005, published 2008).

Tests used:
Curly dock (RUMCR) = test: Field test, weed control, post-emergence, 15 DAT (Example 1); type: in vivo; conditions: use rate I.7 12.5 g/ha, tribenuron-methyl 10 g/ha
Excerpt: (§1) The phenyluracils I and/or the other active ingredients according to the present invention were formulated in a suitable way, either separately or in mixture, e.g. as emulsifiable concentrates (EC), soluble concentrates (SL), suspo-emulsions (SE), suspension concentrates (SC) or water-dispersible granules (WG). The formulation(s) were suspended or emulsified in water as a distribution medium immediately prior to spraying. Afterwards, the aqueous mixture was evenly sprayed on the test plots by means of finely distributing nozzles.
(§2) The test plots were of uniform size (typically between 14 and 37 square meters, each) and the distribution of treated and untreated plots was organized according to a randomised bloc design. Crops were sown in rows at a season which was typical for the region and the crop according to usual farm practice. Weeds were not sown but germinated according to the natural infestation.
(§3) For pre-plant and pre-plant burn-down treatments, the plots were treated before the crop was planted, typically 7 to 28 days prior to planting. For pre-emergence treatments, the plots were treated at planting (plus or minus two days) but before emergence. For post-emergence or in-crop treatments, the plots were treated after the emergence of the weed or crop, typically 20 to 50 days after planting. […]

Wild mustard (SINAR) = test: as above; type: in vivo; conditions: use rate I.7 12.5 g/ha, tribenuron-methyl 10 g/ha
Excerpt: as §1, §2, §3

COC(=O)c1ccccc1S(=O)(=O)NC(=O)N(C)c1nc(C)nc(OC)n1 [tribenuron-methyl]
Weed control (% control) Curly dock (RUMCR) Found (Curly dock (RUMCR)): 40 % control | Weed control (% control) Wild mustard (SINAR) Found (Wild mustard (SINAR)): 100 % control
